One assay deals with Cholinesterase (Mus musculus, UniProt Q03311). Briefly: Inhibition of BuChE in Swiss Webster mouse whole blood serum using butyrylthiocholine iodide as substrate preincubated for 10 mins followed substrate addition measured after 10 mins by Ellman's method.
The target in a further assay is T1, Acetylcholinesterase (Mus musculus, UniProt P21836).
T1 sequence (P21836 whole entry): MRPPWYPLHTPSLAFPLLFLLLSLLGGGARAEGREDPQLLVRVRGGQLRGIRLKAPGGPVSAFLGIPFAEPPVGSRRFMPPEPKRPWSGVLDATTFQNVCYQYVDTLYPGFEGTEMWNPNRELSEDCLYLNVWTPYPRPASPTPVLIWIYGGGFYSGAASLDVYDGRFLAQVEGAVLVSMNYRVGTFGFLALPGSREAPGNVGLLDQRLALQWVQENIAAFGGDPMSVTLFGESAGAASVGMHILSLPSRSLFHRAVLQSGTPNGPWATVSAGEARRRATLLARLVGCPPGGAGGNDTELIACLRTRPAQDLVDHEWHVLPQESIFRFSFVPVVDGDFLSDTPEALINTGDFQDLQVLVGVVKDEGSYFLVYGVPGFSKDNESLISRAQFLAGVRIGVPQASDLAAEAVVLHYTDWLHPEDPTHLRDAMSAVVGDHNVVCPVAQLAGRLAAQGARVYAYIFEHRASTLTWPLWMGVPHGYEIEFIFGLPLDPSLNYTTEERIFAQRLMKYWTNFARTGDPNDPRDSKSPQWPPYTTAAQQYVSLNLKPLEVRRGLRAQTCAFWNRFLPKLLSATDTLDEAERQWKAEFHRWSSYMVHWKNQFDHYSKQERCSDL
The assay is described as follows: Inhibition of AChE in Swiss Webster mouse cerebral homogenate using acetylthiocholine iodide as substrate preincubated for 10 mins followed substrate addition measured after 10 mins by Ellman's method.

Chain of Cholinesterase (Q03311 whole entry): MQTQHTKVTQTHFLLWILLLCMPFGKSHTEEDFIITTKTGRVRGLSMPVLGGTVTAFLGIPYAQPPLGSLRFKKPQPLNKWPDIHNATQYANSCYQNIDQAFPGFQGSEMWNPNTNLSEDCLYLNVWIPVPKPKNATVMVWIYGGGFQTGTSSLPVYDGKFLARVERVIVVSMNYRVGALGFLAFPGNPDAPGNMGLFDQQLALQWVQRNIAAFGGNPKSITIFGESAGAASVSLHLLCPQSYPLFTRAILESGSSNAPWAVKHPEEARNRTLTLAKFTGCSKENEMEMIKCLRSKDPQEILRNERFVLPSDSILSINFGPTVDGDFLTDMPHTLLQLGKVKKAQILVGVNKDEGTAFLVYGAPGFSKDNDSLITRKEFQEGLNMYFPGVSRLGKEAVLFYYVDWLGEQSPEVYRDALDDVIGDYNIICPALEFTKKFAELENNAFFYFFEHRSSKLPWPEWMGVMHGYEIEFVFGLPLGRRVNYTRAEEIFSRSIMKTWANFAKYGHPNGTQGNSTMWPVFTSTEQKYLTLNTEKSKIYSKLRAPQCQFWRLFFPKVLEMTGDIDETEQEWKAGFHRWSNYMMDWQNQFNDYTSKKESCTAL

For `c1ccc2c(NCCCCCCCNc3c4c(nc5ccccc35)CCCC4)c3c(nc2c1)CCCC3`, the IC50 amounted to 9.1 nM on Cholinesterase and 1.9 nM against Acetylcholinesterase.
Taken in the same sequence, the figures for `CO[C@@H]1O[C@H](CNCCCCCCCCNc2c3c(nc4ccccc24)CCCC3)[C@H]2OC(C)(C)O[C@@H]12` were 36.9 nM and 89.9 nM.
Take `CC1(C)O[C@H]2O[C@H](CNCCCCCCCCNc3c4c(nc5ccccc35)CCCC4)[C@H](O)[C@H]2O1`: the half-inhibitory concentration (IC50) against Cholinesterase turned out to be 25.8 nM; on Acetylcholinesterase, 5.1 nM.
`CO[C@@H]1O[C@H](CNCCCCCCCCCNc2c3c(nc4ccccc24)CCCC3)[C@H]2OC(C)(C)O[C@@H]12`: the IC50 is 64.3 nM at Cholinesterase and 65.5 nM at Acetylcholinesterase.
As for `CC1(C)O[C@H]2O[C@H](CNCCCCCCCNc3c4c(nc5ccccc35)CCCC4)[C@H](O)[C@H]2O1`, the figures for the IC50 against Cholinesterase and against Acetylcholinesterase were 11.7 nM and 84.4 nM, respectively.
Taken in the same sequence, the figures for `CC1(C)O[C@H]2O[C@H](CNCCCCCCNc3c4c(nc5ccccc35)CCCC4)[C@H](O)[C@H]2O1` were 27.6 nM and 8.7 nM.
As to `CC1(C)O[C@H]2[C@@H](O1)[C@@H](CNCCCCCCCCNc1c3c(nc4ccccc14)CCCC3)O[C@@H]1OC(C)(C)O[C@@H]12`, the 50% inhibitory concentration (IC50) against Cholinesterase stood at 36.7 nM; against Acetylcholinesterase, 4.8 nM.
In the case of `CC1(C)O[C@H]2[C@@H](O1)[C@@H](CNCCCCCCCCCNc1c3c(nc4ccccc14)CCCC3)O[C@@H]1OC(C)(C)O[C@@H]12`, the IC50 against Cholinesterase was 26.2 nM; on Acetylcholinesterase, 7.6 nM.
As for `CC1(C)O[C@H]2O[C@H](CNCCCCCCCCCNc3c4c(nc5ccccc35)CCCC4)[C@H](O)[C@H]2O1`, the IC50 is 30.8 nM against Cholinesterase and 10.2 nM against Acetylcholinesterase.
For the compound `CC1(C)O[C@H]2O[C@H](CNCCCCCCCCCCNc3c4c(nc5ccccc35)CCCC4)[C@H](O)[C@H]2O1`, the values for the IC50 against Cholinesterase and at Acetylcholinesterase were 4.93 nM and 2.2 nM, respectively.

(Values after ChEMBL document CHEMBL4265994, “Design, synthesis, cholinesterase inhibition and molecular modelling study of novel tacrine hybrids with carbohydrate derivatives” (Bioorg Med Chem, 2018).)
